Biological target: T1, human Fatty Acid Synthase (Homo sapiens, UniProt P49327)
T1 construct: made in house
Assay: Human FAS enzyme assay (decrease in NADPH fluorescence)
Type: biochemical
Details: for inhibition at 100 µM: % inhibition at a concentration of 100 micromolar
How it was run: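 In-house human FAS (0.4 μg) was preincubated 15 min at RT with compound and NADPH (added at 166.6 μM) in 0.1 M Tris pH 7.5, 1 mM glutathione, 0.05% BSA. Malonyl-/acetyl-CoA (500/150 μM in substrate mix) was then added for 60 min. Readout was NADPH fluorescence loss (ex 340/em 460) over a time-zero read, with IC50 from a sigmoid fit.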

T1 sequence (P49327 whole entry): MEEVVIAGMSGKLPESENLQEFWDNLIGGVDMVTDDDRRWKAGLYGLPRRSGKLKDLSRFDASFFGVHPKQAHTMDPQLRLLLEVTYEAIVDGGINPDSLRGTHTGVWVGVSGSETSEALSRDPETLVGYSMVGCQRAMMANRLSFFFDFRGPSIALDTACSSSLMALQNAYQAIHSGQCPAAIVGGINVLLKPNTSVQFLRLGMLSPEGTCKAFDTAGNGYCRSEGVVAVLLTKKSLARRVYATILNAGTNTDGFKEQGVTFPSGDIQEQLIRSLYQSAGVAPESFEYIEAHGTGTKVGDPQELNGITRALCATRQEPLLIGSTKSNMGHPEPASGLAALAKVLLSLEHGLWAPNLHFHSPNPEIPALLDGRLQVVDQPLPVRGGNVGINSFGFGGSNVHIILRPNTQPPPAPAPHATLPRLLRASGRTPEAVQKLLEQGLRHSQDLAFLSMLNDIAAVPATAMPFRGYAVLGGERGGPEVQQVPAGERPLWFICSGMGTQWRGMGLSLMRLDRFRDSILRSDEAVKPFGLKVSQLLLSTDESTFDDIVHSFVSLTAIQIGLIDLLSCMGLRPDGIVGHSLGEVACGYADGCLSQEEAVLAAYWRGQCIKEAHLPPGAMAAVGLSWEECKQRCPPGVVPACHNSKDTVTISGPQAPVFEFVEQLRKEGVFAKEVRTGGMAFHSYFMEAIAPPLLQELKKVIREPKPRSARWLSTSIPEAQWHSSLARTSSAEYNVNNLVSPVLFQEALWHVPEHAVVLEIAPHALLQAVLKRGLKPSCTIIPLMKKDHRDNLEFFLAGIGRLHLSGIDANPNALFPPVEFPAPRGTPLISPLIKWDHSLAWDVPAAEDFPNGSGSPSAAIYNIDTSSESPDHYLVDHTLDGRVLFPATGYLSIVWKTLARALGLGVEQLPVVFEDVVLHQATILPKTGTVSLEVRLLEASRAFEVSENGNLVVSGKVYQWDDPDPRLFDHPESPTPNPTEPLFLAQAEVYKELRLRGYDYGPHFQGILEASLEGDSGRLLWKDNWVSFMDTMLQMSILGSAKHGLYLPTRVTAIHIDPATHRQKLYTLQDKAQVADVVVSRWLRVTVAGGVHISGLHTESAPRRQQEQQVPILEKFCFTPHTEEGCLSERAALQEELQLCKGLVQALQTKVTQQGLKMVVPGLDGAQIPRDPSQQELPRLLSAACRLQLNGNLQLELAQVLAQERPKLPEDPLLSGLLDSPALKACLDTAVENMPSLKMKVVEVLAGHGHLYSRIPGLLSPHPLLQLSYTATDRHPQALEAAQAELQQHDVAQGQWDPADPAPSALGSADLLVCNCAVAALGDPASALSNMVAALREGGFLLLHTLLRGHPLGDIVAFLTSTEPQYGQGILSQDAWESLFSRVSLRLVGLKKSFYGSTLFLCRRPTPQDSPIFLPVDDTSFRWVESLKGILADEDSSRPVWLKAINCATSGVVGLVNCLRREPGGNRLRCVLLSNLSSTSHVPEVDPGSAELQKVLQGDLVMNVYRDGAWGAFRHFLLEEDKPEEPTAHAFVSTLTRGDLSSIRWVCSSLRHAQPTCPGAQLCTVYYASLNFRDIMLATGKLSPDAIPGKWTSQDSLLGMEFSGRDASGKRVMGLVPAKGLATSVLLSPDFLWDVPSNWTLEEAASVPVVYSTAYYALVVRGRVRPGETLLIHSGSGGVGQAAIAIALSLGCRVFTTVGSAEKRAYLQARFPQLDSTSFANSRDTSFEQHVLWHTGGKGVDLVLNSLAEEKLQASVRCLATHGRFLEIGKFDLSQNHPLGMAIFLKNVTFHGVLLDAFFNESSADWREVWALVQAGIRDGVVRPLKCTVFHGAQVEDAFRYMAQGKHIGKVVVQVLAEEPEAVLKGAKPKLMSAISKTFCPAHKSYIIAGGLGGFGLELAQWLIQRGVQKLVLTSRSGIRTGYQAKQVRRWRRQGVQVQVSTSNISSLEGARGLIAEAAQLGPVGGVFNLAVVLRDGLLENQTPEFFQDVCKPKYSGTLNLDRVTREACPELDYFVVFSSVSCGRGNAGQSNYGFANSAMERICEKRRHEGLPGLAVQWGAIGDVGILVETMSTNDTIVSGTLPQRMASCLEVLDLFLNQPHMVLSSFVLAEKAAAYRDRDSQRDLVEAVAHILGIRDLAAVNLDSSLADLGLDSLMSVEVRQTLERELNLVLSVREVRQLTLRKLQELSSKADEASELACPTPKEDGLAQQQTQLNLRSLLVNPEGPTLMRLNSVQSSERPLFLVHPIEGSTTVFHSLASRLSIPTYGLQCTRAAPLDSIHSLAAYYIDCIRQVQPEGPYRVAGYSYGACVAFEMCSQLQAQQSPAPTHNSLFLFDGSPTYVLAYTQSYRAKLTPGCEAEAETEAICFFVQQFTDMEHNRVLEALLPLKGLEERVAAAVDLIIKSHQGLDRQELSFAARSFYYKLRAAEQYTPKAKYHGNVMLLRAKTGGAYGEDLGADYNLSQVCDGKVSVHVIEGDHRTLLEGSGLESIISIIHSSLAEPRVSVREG

| Compound | inhibition at 100 µM | IC50 (unit inferred) |
| --- | --- | --- |
| Cc1ccc(C(=O)N2CCC(c3ccc(C#N)cc3)CC2)cc1NS(=O)(=O)c1cccc(C(=O)NCCO)c1 [Example 84, 3-[[5-[4-(4-cyanophenyl)piperidine-1-carbonyl]-2-methyl-phenyl]sulfamoyl]-N-(2-hydroxyethyl)benzamide] | 92% |  |
| Cc1ccc(C(=O)N2CCC(c3ccc(C#N)cc3)CC2)cc1NS(=O)(=O)C1CCNCC1 [Example 115, N-[5-[4-(4-cyanophenyl)piperidine-1-carbonyl]-2-methyl-phenyl]piperidine-4-sulfonamide] | 97% |  |
| Cc1ccc(C(=O)N2CCC(c3ccc(C#N)cc3)CC2)cc1NS(=O)(=O)CCNS(=O)(=O)C(C)C [Example 80, N-[2-[[5-[4-(4-cyanophenyl)piperidine-1-carbonyl]-2-methyl-phenyl]sulfamoyl]ethyl]propane-2-sulfonamide] | 90% |  |
| Cc1ccc(C(=O)N2CCC(c3ccc(C(=O)NCCN(C)C)cc3)CC2)cc1NS(C)(=O)=O [Example 222, N-(2-dimethylaminoethyl)-4-[1-(3-methanesulfonamido-4-methylbenzoyl)piperidin-4-yl]benzamide] | 64% |  |
| CCCS(=O)(=O)NCc1ccc(C2CCN(C(=O)c3ccc(C)c(NS(C)(=O)=O)c3)CC2)cc1 [Example 237, N-[[4-[1-(3-methanesulfonamido-4-methylbenzoyl)piperidin-4-yl]phenyl]methyl]propane-1-sulfonamide] | 85.2% |  |
| Cc1ccc(C(=O)N2CCC(c3ccc(C#N)cc3)CC2)cc1NS(=O)(=O)CC#N [Example 212, 1-cyano-N-[5-[4-(4-cyanophenyl)piperidine-1-carbonyl]-2-methylphenyl]methanesulfonamide] | 69% |  |
| Cc1ccc(C(=O)N2CCC(c3ccc(C#N)cc3)CC2)cc1NS(=O)(=O)c1ccccc1C(=O)NC(C)C [Example 208, 2-[[5-[4-(4-cyanophenyl)piperidine-1-carbonyl]-2-methylphenyl]sulfamoyl]-N-propan-2-ylbenzamide] | 75% |  |
| CCC(C)S(=O)(=O)Nc1ccc(C)c(C(=O)N2CCC(c3ccc(C#N)cc3)CC2)c1 (racemic) [Example 44, (RS) N-[3-[4-(4-cyanophenyl)piperidine-1-carbonyl]-4-methyl-phenyl]butane-2-sulfonamide] | 89% |  |
| CNC(=O)c1ccc(C2CCN(C(=O)c3ccc(C)c(NS(C)(=O)=O)c3)CC2)cc1 [Example 156, 4-[1-(3-methanesulfonamido-4-methyl-benzoyl)-4-piperidyl]-N-methyl-benzamide] | 74% |  |
| Cc1ccc(C(=O)N2CCC(c3ccc(CNS(=O)(=O)CC(=O)O)cc3)CC2)cc1NS(C)(=O)=O [Example 253, 2-[[4-[1-(3-methanesulfonamido-4-methylbenzoyl)piperidin-4-yl]phenyl]methylsulfamoyl]acetic acid] |  | 12.7 µM |
| Cc1ccc(C(=O)N2CCC(c3ccc(C#N)cc3)CC2)cc1NS(=O)(=O)CC1CCCCC1 [Example 15, N-[5-[4-(4-cyanophenyl)piperidine-1-carbonyl]-2-methyl-phenyl]-1-cyclohexyl-methanesulfonamide] | 93% |  |
| Cc1ccc(C(=O)N2CCC(c3ccc(C#N)cc3)CC2)cc1NS(=O)(=O)C1CCS(=O)(=O)C1 (centres unmarked) [Example 127, N-[5-[4-(4-cyanophenyl)piperidine-1-carbonyl]-2-methyl-phenyl]-1,1-dioxo-thiolane-3-sulfonamide] | 92% |  |
| Cc1ccc(C(=O)N2CCC(c3ccc(C(F)(F)F)cc3)CC2)cc1NS(C)(=O)=O [Example 157, N-[2-methyl-5-[4-[4-(trifluoromethyl)phenyl]piperidine-1-carbonyl]phenyl]methanesulfonamide] | 78% |  |
| N#Cc1ccc(C2CCN(C(=O)c3cc(NS(=O)(=O)Cc4ccccc4)ccc3F)CC2)cc1 [Example 199, N-[3-[4-(4-cyanophenyl)piperidine-1-carbonyl]-4-fluorophenyl]-1-phenylmethane-sulfonamide] | 79% |  |

Reference: patent publication US20090105305A1, “Therapeutic Agents - 550” (AstraZeneca AB, priority 2006, published 2009)
